The record followed here is patent US10010614B2, “Derivatives of GLP-1 like peptides, and uses thereof” (Novo Nordisk A/S, priority 2013, dated 2018).

pEC50: −log10 of the molar value. Numbered stars: 1 amine (or outer) side, 2 acyl side, 3 side chain; on linkers, the order of the positions; unused ones are H or OH. Square brackets hold non-standard residues; d marks the D form. Side chains are listed from the residue outwards. Peptide text beside a SMILES is read from it. * marks the point of attachment. X1 = O=C(O)CCCCCCCCCCCCCCCCCCC(=O)NCC1CCC(C(=O)*)CC1; C20 diacid = O=C(O)CCCCCCCCCCCCCCCCCCC(=O)*; γGlu = O=C(O)[C@H](CCC(=O)[*:2])N[*:1]; εLys = N[C@@H](CCCCN[*:1])C(=O)[*:2]; Trx = NC[C@H]1CC[C@H](C(=O)O)CC1; AEEA = NCCOCCOCC(=O)O; Aib = CC(C)(N)C(=O)O

A short description of series [1]: Pharmacokinetic study in minipigs (i.v.). In kind it is in vivo. The note with it: male, Göttingen, minipig, plasma, iv; read-out: Terminal half-live (converted). On the procedure: The purpose of this study is to determine the protraction in vivo of the GLP-1 derivatives after i.v. administration to minipigs, i.e. the prolongation of their time in the body and thereby their time of action. This is done in a pharmacokinetic (PK) study, where the terminal half-life of the derivative in question is determined. By terminal half-life is meant the time it takes to halve a certain plasma concentration in the terminal elimination phase.
The derivatives of Examples 1-5 were dosed with 2 nmol/kg, the derivative of Example 6 was dosed with 5 nmol/kg, and the derivatives of Examples 7-9 were dosed with 15 nmol/kg.
Male Göttingen minipigs were obtained from Ellegaard Göttingen Minipigs (Dalmose, Denmark) approximately 7-14 months of age and weighing approximately 16-35 kg were used in the studies. The minipigs were housed either individually (pigs with permanent catheters) or in a group and fed restrictedly once or twice daily with SDS minipig diet (Special Diets Services, Essex, UK).
After at least 2 weeks of acclimatisation two permanent central venous catheters were implanted in vena cava caudalis or cranialis in each animal. The animals were allowed 1 week recovery after the surgery, and were then used for repeated pharmacokinetic studies with a suitable wash-out period between successive GLP-1 derivative dosings.
The GLP-1 derivatives were dissolved in 50 mM sodium phosphate, 70-145 mM sodium chloride, 0.05% tween 80, pH 7.4 to a concentration of usually from 20-60 nmol/ml.
Intravenous injections (the volume corresponding to for example 0.050-0.125 ml/kg) of the compounds were given through one catheter or through the venflon, and blood was sampled at predefined time points for up till 25 days post dosing (preferably through the other catheter or by venipuncture). Blood samples (for example 0.8 ml) were collected in EDTA buffer (8 mM) and then centrifuged at 4° C. and 1942G for 10 minutes.
Plasma was pipetted into Micronic tubes on dry ice, and kept at −20° C. until analysed for plasma concentration of the respective GLP-1 compound using LOCI. Individual plasma concentration-time profiles were analyzed by a non-compartmental pharmacokinetic method in Phoenix v. 6.2 (Pharsight Inc., Mountain View, Calif., USA), or other relevant software for PK analysis, and the resulting terminal half-lives (harmonic mean) determined.

The target of series [2] is T1, human GLP-1 receptor (Homo sapiens, UniProt P43220).
T1 construct: expressed in transfected cells; host or cells: membranes prepared from BHK cells (parent line BHKTS13), clone FCW467-12A
Description: GLP-1 receptor binding, competitive binding assay (125I-GLP-1, SPA) on isolated membranes.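 Note: test compounds added at a range of concentrations to membranes from cells expressing the human GLP-1 receptor, scored by displacement of labelled ligand, read with WGA SPA beads.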

Series [3] addresses T1, human GLP-1 receptor. In words: In vitro potency, CRE luciferase reporter gene assay in BHK cells expressing the human GLP-1 receptor. Type of series: cell-based. As to conditions: whole cell reporter gene assay, 3 h incubation, no HSA, averages of at least two replicates. Summed up: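 Stably transfected BHK cells (5×10^3/well) expressing human GLP-1R with a CRE-luciferase reporter; compounds diluted in buffer with 2% ovalbumin and 0.2% Pluronic F-68, final 1×10^−7 to 1×10^−14 M. Incubated 3 h at 37 °C, 5% CO2, then luminescence read; potency from non-linear log(agonist)–response fit, mean of ≥2 replicates.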
Background: A reporter such as luciferase makes a cellular process visible.

T1 sequence (P43220 24-463): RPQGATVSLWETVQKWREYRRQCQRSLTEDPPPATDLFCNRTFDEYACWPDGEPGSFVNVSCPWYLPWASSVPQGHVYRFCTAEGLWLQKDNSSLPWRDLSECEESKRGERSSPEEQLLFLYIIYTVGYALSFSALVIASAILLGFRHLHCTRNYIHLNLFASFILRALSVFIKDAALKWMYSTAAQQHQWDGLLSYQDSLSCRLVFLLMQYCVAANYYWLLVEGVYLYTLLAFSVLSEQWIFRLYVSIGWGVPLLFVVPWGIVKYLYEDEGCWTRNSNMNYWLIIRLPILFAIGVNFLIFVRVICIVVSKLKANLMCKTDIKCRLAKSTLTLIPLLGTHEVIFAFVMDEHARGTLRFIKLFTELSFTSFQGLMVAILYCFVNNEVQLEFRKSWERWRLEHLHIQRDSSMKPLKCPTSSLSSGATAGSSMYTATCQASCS

With `CC[C@H](C)[C@H](NC(=O)[C@H](Cc1ccccc1)NC(=O)[C@H](CCCCNC(=O)COCCOCCNC(=O)COCCOCCNC(=O)CC[C@H](NC(=O)C1CCC(CNC(=O)CCCCCCCCCCCCCCCCCCC(=O)O)CC1)C(=O)O)NC(=O)[C@H](CCCNC(=N)N)NC(=O)[C@H](C)NC(=O)[C@H](C)NC(=O)[C@H](CCC(N)=O)NC(=O)[C@H](CCC(=O)O)NC(=O)[C@H](CCC(=O)O)NC(=O)[C@H](CC(C)C)NC(=O)[C@H](Cc1ccc(O)cc1)NC(=O)[C@H](CO)NC(=O)[C@H](CO)NC(=O)[C@@H](NC(=O)[C@H](CC(=O)O)NC(=O)[C@H](CO)NC(=O)[C@@H](NC(=O)[C@H](Cc1ccccc1)NC(=O)[C@@H](NC(=O)CNC(=O)[C@H](CCC(=O)O)NC(=O)C(C)(C)NC(=O)[C@@H](N)Cc1c[nH]cn1)[C@@H](C)O)[C@@H](C)O)C(C)C)C(=O)N[C@@H](C)C(=O)N[C@@H](Cc1c[nH]c2ccccc12)C(=O)N[C@@H](CC(C)C)C(=O)N[C@H](C(=O)N[C@@H](CCCNC(=N)N)C(=O)NCC(=O)N[C@@H](CCCNC(=N)N)C(=O)NCC(=O)NCC(=O)NCC(=O)NCC(=O)N[C@@H](CO)C(=O)N[C@@H](CCCCNC(=O)COCCOCCNC(=O)COCCOCCNC(=O)CC[C@H](NC(=O)C1CCC(CNC(=O)CCCCCCCCCCCCCCCCCCC(=O)O)CC1)C(=O)O)C(=O)O)C(C)C` (some centres unmarked) [Example 1] (H-H[Aib]EGTFTSDVSSYLEEQAARK([AEEA-AEEA-γGlu-X1])FIAWLVRGRGGGGSK([AEEA-AEEA-γGlu-X1])-OH; N-terminus and C-terminus assumed), in series [1], the half-life was 5.04 days.

In the case of `CC[C@H](C)[C@H](NC(=O)[C@H](Cc1ccccc1)NC(=O)[C@H](CCC(=O)O)NC(=O)[C@H](CCCNC(=N)N)NC(=O)[C@H](C)NC(=O)[C@H](C)NC(=O)[C@H](CCC(N)=O)NC(=O)[C@H](CCC(=O)O)NC(=O)[C@H](CCC(=O)O)NC(=O)[C@H](CC(C)C)NC(=O)[C@H](Cc1ccc(O)cc1)NC(=O)[C@H](CO)NC(=O)[C@H](CO)NC(=O)[C@@H](NC(=O)[C@H](CC(=O)O)NC(=O)[C@H](CO)NC(=O)[C@@H](NC(=O)[C@H](Cc1ccccc1)NC(=O)[C@@H](NC(=O)CNC(=O)[C@H](CCC(=O)O)NC(=O)C(C)(C)NC(=O)[C@@H](N)Cc1c[nH]cn1)[C@@H](C)O)[C@@H](C)O)C(C)C)C(=O)N[C@@H](C)C(=O)N[C@@H](CCCCNC(=O)COCCOCCNC(=O)COCCOCCNC(=O)CC[C@H](NC(=O)[C@H]1CC[C@H](CNC(=O)CCCCCCCCCCCCCCCCCCC(=O)O)CC1)C(=O)O)C(=O)N[C@@H](CC(C)C)C(=O)N[C@H](C(=O)N[C@@H](CCCNC(=N)N)C(=O)NCC(=O)N[C@@H](CCCNC(=N)N)C(=O)NCC(=O)NCC(=O)NCC(=O)NCC(=O)N[C@@H](CO)C(=O)N[C@@H](CCCCNC(=O)COCCOCCNC(=O)COCCOCCNC(=O)CC[C@H](NC(=O)[C@H]1CC[C@H](CNC(=O)CCCCCCCCCCCCCCCCCCC(=O)O)CC1)C(=O)O)C(=O)O)C(C)C` [Example 2] (H-H[Aib]EGTFTSDVSSYLEEQAAREFIAK([AEEA-AEEA-γGlu-Trx-C20 diacid])LVRGRGGGGSK([AEEA-AEEA-γGlu-Trx-C20 diacid])-OH), the IC50 – broadly, the concentration that gives 50% inhibition – was ≥ 1000 nM in series [2] (High HSA IC50 (nM), high serum albumin (2.0% HSA final assay concentration)) and 1.4 nM in series [2] (Low HSA IC50 (nM), low serum albumin (max. 0.001% final assay concentration)). The half-life in series [1] is 4.58 days. For the same compound, the pEC50 (commonly the negative decadic logarithm of the EC50, by convention in mol/L) in series [3] is 10.44. For the compound `CC[C@H](C)[C@H](NC(=O)[C@H](Cc1ccccc1)NC(=O)[C@H](CCC(=O)O)NC(=O)[C@H](CCCNC(=N)N)NC(=O)[C@H](C)NC(=O)[C@H](C)NC(=O)[C@H](CCCCNC(=O)COCCOCCNC(=O)COCCOCCNC(=O)CC[C@H](NC(=O)C1CCC(CNC(=O)CCCCCCCCCCCCCCCCCCC(=O)O)CC1)C(=O)O)NC(=O)[C@H](CCC(=O)O)NC(=O)[C@H](CCC(=O)O)NC(=O)[C@H](CC(C)C)NC(=O)[C@H](Cc1ccc(O)cc1)NC(=O)[C@H](CO)NC(=O)[C@H](CO)NC(=O)[C@@H](NC(=O)[C@H](CC(=O)O)NC(=O)[C@H](CO)NC(=O)[C@@H](NC(=O)[C@H](Cc1ccccc1)NC(=O)[C@@H](NC(=O)CNC(=O)[C@H](CCC(=O)O)NC(=O)C(C)(C)NC(=O)[C@@H](N)Cc1c[nH]cn1)[C@@H](C)O)[C@@H](C)O)C(C)C)C(=O)N[C@@H](C)C(=O)N[C@@H](Cc1c[nH]c2ccccc12)C(=O)N[C@@H](CC(C)C)C(=O)N[C@H](C(=O)N[C@@H](CCCNC(=N)N)C(=O)NCC(=O)N[C@@H](CCCNC(=N)N)C(=O)NCC(=O)NCC(=O)NCC(=O)NCC(=O)N[C@@H](CO)C(=O)N[C@@H](CCCCNC(=O)COCCOCCNC(=O)COCCOCCNC(=O)CC[C@H](NC(=O)C1CCC(CNC(=O)CCCCCCCCCCCCCCCCCCC(=O)O)CC1)C(=O)O)C(=O)O)C(C)C` (some centres unmarked) [Example 4] (H-H[Aib]EGTFTSDVSSYLEEK([AEEA-AEEA-γGlu-X1])AAREFIAWLVRGRGGGGSK([AEEA-AEEA-γGlu-X1])-OH; N-terminus and C-terminus assumed), the half-life in series [1] is 5.71 days.

For `CC[C@H](C)[C@H](NC(=O)[C@H](Cc1ccccc1)NC(=O)[C@H](CCC(=O)O)NC(=O)[C@H](CCCNC(=N)N)NC(=O)[C@H](C)NC(=O)[C@H](C)NC(=O)[C@H](CCC(N)=O)NC(=O)[C@H](CCC(=O)O)NC(=O)[C@H](CCC(=O)O)NC(=O)[C@H](CC(C)C)NC(=O)[C@H](Cc1ccc(O)cc1)NC(=O)[C@H](CO)NC(=O)[C@H](CO)NC(=O)[C@@H](NC(=O)[C@H](CC(=O)O)NC(=O)[C@H](CO)NC(=O)[C@@H](NC(=O)[C@H](Cc1ccccc1)NC(=O)[C@@H](NC(=O)CNC(=O)[C@H](CCC(=O)O)NC(=O)C(C)(C)NC(=O)[C@@H](N)Cc1c[nH]cn1)[C@@H](C)O)[C@@H](C)O)C(C)C)C(=O)N[C@@H](C)C(=O)N[C@@H](Cc1c[nH]c2ccccc12)C(=O)N[C@@H](CC(C)C)C(=O)N[C@H](C(=O)N[C@@H](CCCNC(=N)N)C(=O)NCC(=O)N[C@@H](CCCCNC(=O)COCCOCCNC(=O)COCCOCCNC(=O)CC[C@H](NC(=O)C1CCC(CNC(=O)CCCCCCCCCCCCCCCCCCC(=O)O)CC1)C(=O)O)C(=O)NCC(=O)NCC(=O)NCC(=O)NCC(=O)N[C@@H](CO)C(=O)N[C@@H](CCCCNC(=O)COCCOCCNC(=O)COCCOCCNC(=O)CC[C@H](NC(=O)C1CCC(CNC(=O)CCCCCCCCCCCCCCCCCCC(=O)O)CC1)C(=O)O)C(=O)O)C(C)C` (some centres unmarked) [Example 5] (H-H[Aib]EGTFTSDVSSYLEEQAAREFIAWLVRGK([AEEA-AEEA-γGlu-X1])GGGGSK([AEEA-AEEA-γGlu-X1])-OH; N-terminus and C-terminus assumed), in series [1], the half-life is 5.46 days. Still for that read-out and setting: as for `CC[C@H](C)[C@H](NC(=O)[C@H](Cc1ccccc1)NC(=O)[C@H](CCC(=O)O)NC(=O)[C@H](CCCNC(=N)N)NC(=O)[C@H](C)NC(=O)[C@H](C)NC(=O)[C@H](CCC(N)=O)NC(=O)[C@H](CCC(=O)O)NC(=O)[C@H](CCC(=O)O)NC(=O)[C@H](CC(C)C)NC(=O)[C@H](Cc1ccc(O)cc1)NC(=O)[C@H](CO)NC(=O)[C@H](CO)NC(=O)[C@@H](NC(=O)[C@H](CC(=O)O)NC(=O)[C@H](CO)NC(=O)[C@@H](NC(=O)[C@H](Cc1ccccc1)NC(=O)[C@@H](NC(=O)CNC(=O)[C@H](CCC(=O)O)NC(=O)C(C)(C)NC(=O)[C@@H](N)Cc1c[nH]cn1)[C@@H](C)O)[C@@H](C)O)C(C)C)C(=O)N[C@@H](C)C(=O)N[C@@H](Cc1c[nH]c2ccccc12)C(=O)N[C@@H](CC(C)C)C(=O)N[C@H](C(=O)N[C@@H](CCCNC(=N)N)C(=O)NCC(=O)N[C@@H](CCCNC(=N)N)C(=O)NCC(=O)N[C@@H](CCCCNC(=O)[C@@H](N)CCCCNC(=O)[C@@H](N)CCCCNC(=O)CC[C@H](NC(=O)[C@H]1CC[C@H](CNC(=O)CCCCCCCCCCCCCCCCCCC(=O)O)CC1)C(=O)O)C(=O)NCC(=O)NCC(=O)N[C@@H](CO)C(=O)N[C@@H](CCCCNC(=O)[C@@H](N)CCCCNC(=O)[C@@H](N)CCCCNC(=O)CC[C@H](NC(=O)[C@H]1CC[C@H](CNC(=O)CCCCCCCCCCCCCCCCCCC(=O)O)CC1)C(=O)O)C(=O)O)C(C)C` [Example 7] (H-H[Aib]EGTFTSDVSSYLEEQAAREFIAWLVRGRGK([εLys-εLys-γGlu-Trx-C20 diacid])GGSK([εLys-εLys-γGlu-Trx-C20 diacid])-OH), the figure is 4.42 days.
